Laboratory results published in article PMC12040169 (PLOS Biology, 2025).
Converted amounts (≈) assume the structure as drawn.

Experiments:
[1] = system: T1, CTL2-GFP (C. trachomatis L2/434/Bu, GFP-expressing); assay: microbe, parasite or virus in culture; design: C. trachomatis growth in HeLa, dose-response, mean of bulk GFP fluorescence and imaged total inclusion area; conditions: Chlamydia trachomatis, HeLa, 28.5 h; mean of GFP and inclusion area
T1 construct: L2/434/Bu, GFP-expressing
Source text: We screened a library of 36,785 small molecules displaying drug-like properties and covering a wide chemical space (Fig 1A and S2A Data). In this process, we also complemented the assay described above with an imaging-based readout (Fig 1B). After measurements of bulk GFP and resorufin fluorescence, cells were fixed, stained with the DNA dye Hoechst, and imaged at a high-content imaging platform to detect chlamydial inclusions (GFP) and host cell nuclei (Hoechst). The total area and number of inclusions in individual wells and the number of nuclei then served as additional proxies for chlamydial growth and host cell viability. […] MICs were calculated as described above.

[2] = system: T1, CTL2-GFP (C. trachomatis L2/434/Bu, GFP-expressing); assay: microbe, parasite or virus in culture; design: species or system HeLa; C. trachomatis growth in HeLa, dose-response, mean of bulk GFP fluorescence and imaged total inclusion area; conditions: Chlamydia trachomatis, 28.5 h; mean of GFP and inclusion area
Procedure, shortened: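 GFP/resorufin bulk fluorescence read → fix → Hoechst stain → high-content imaging. Inclusion total area + count = growth proxy; nuclei count = host viability proxy. MIC calc per earlier method.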

[3] = in vitro; design: Viability of infected HeLa host cells, resazurin conversion, bulk resorufin fluorescence relative to DMSO; conditions: human, hela cells; bulk resorufin, mean of 3

Compound | IC50 [1] [µM] | MIC [2] [µM] | viability at 28.5 h, 0.000416667 µM [3] [%] | viability at 28.5 h, 0.00125 µM [3] [%] | viability at 28.5 h, 0.00375 µM [3] [%] | viability at 28.5 h, 0.0123333 µM [3] [%] | viability at 28.5 h, 0.037 µM [3] [%] | viability at 28.5 h, 0.111 µM [3] [%] | viability at 28.5 h, 0.333 µM [3] [%] | viability at 28.5 h, 1 µM [3] [%] | viability at 28.5 h, 3 µM [3] [%] | viability at 28.5 h, 10 µM [3] [%] | viability at 28.5 h, 30 µM [3] [%]
CN(C)c1ccc(Nc2nc(NCCO)c3ccccc3n2)cc1 [c27e] | 2.54 | 5.04 (≈ 1.63 µg/mL) | 93.3 | 89.2 | 89.8 | 89.3 | 93.2 | 89.1 | 95.3 | 89.9 | 103 | 99.4 | 110
O=C(Nc1ccccc1N1CCCNCC1)c1ccc2ccccc2c1 [c29e] | 2.87 | 5.56 (≈ 1.92 µg/mL) | 108 | 107 | 108 | 107 | 109 | 116 | 114 | 115 | 111 | 116 | 112
CCC1C(c2ccc(C)cc2)=CCC(C(=O)NCCCN(C)C)C1C (stereo not shown) [c30e] | 3.07 | 8.94 (≈ 3.06 µg/mL) | 91.8 | 95.1 | 91.6 | 87.1 | 90.5 | 97.1 | 87.9 | 92.4 | 89.5 | 94.4 | 55.5
Fc1cc(Br)c(CNCc2ncc[nH]2)c(N2CCCCC2)c1F [c31e] | 3.12 | 5.18 (≈ 1.99 µg/mL) | 101 | 103 | 98.4 | 96.4 | 92 | 100 | 93.6 | 97.6 | 101 | 97.6 | 102
COc1ccc2cc3c(nc2c1)OC(=O)N(CC1CC1)C3 [c32e] | 3.16 | 4.53 (≈ 1.29 µg/mL) | 102 | 94.1 | 91.5 | 92 | 89.7 | 84.5 | 88.5 | 84.9 | 86.8 | 85.1 | 85.4
CC(=O)Nc1ccc(-c2cccc(COC3CCN(C(=O)c4ccc(OC(C)C)cc4)CC3)c2)cc1 [c36e] | 4.11 | 8.26 (≈ 4.02 µg/mL) | 89.8 | 85.4 | 90.5 | 89 | 91.7 | 89.4 | 94.8 | 92 | 95.1 | 97.8 | 116
CCOc1ccc2nc(NC(=N)N)nc(C)c2c1 [c37e] | 4.22 | 11.4 (≈ 2.8 µg/mL) | 85.5 | 89.1 | 85.5 | 89 | 86.7 | 91.1 | 88.4 | 87.7 | 84.7 | 79 | 55.2
Cc1cccc(-c2ccc(CC3(C(N)=O)CCN(C(=O)CCc4ccccc4)CC3)cc2)c1 [c38e] | 4.84 | 8.43 (≈ 3.71 µg/mL) | 101 | 97.3 | 96.8 | 101 | 98.4 | 98.7 | 94.7 | 103 | 99.3 | 104 | 114
COc1ccc([C@@H]2CN(C)C[C@H]2NC(=O)Nc2ccc(Cl)c(Cl)c2)cc1OC [c39e] | 4.96 | 5.39 (≈ 2.29 µg/mL) | 93.1 | 88.4 | 92.6 | 90.6 | 94.9 | 83.9 | 87.9 | 84.4 | 86.1 | 84.6 | 81.3
O=C1C(NCCO)=C(Nc2cccc(Cl)c2)C(=O)c2ccccc21 [c45e] | 6.16 | 19.4 (≈ 6.66 µg/mL) | 89.2 | 87.4 | 91 | 91.6 | 91.8 | 88.5 | 92.8 | 89.8 | 93.6 | 97.9 | 102
Cc1cccc(OCC(C)NC(=O)NCCc2cnn(C)c2)c1 (stereo not shown) [c47e] | 6.59 | 12.1 (≈ 3.83 µg/mL) | 97.2 | 99.7 | 102 | 104 | 105 | 100 | 112 | 106 | 109 | 113 | 118
Oc1ccccc1Nc1nc(NC2CCCC2)c2ccccc2n1 [c49e] | 7.48 | 10.8 (≈ 3.45 µg/mL) | 84.4 | 94.9 | 87.6 | 90 | 86 | 91.7 | 87.8 | 90.1 | 84.7 | 90.6 | 77.3
O=C(NCCCn1ccnc1)c1cc(-c2cccc(Br)c2)nc2ccccc12 [c50e] | 7.95 | 9.27 (≈ 4.03 µg/mL) | 90.5 | 90.8 | 90.1 | 87.8 | 86.1 | 90.6 | 85.4 | 89.1 | 86.3 | 90 | 84.8
